Where two headings read alike, the source gives them in different places.
Columns and labels:
[1] = tested on: electroshock seizure, Male Wistar rats; test: In vivo rat assay for anti-convulsant activity (rat MES, electroshock seizure); details: for ED50: Rattus norvegicus, po; for Rat MES activity: single dose screening, typically 10 mg/kg, animals protected from hind limb extension
Description: Male Wistar rats were housed 4 per cage on a regular light/dark cycle (lights on 0600-1800) for one week prior to anti-convulsant testing. The apparatus used to induce electroshock seizure was obtained from Walhquist Instrument Co., Salt Lake City, Utah. The shock level was set at 150 mA and the duration at 0.2 seconds. A drop of 1% proparacaine solution was placed in each eye of a rat, the electrodes were placed over the eyes, and the shock was administered. Latency to hind limb extension was measured to the nearest 0.1 second.
The KCNQ opener was homogenized in either 0.5% carboxymethylcellulose in water or 0.5% methylcellulose in water) and administered orally through a steel 18-gauge rat gavage tube in a volume of 2 mL/kg of body weight. In the single dose screening assay, latency to seizure for the vehicle group and the KCNQ opener group were compared using t-test. Typically a dose of 10 mg/kg of the opener is used. However, openers can be run n a dose-response experiment where doses of 1, 3, 10 and 30 mg/Kg are used.
In the single dose screening assay, latency to seizure for the vehicle and the 10 mg/kg groups were compared using t-test. Latencies to seizure in the dose response studies were submitted to analysis of variance and all dose groups were compared to vehicle using Dunnett's method (JMP© ver 5.1, SAS). In all cases an effect was considered significant if p≦0.05.

[2] = tested on: SH-SY5Y M-currents (KCNQ2, KCNQ3 and KCNQ5); test: SH-SY5Y native cell line FLIPR assay (voltage-sensitive dye DiBAC); type: cell-based, mouse neuroblastoma, rat glioma hybrid cell line; details: SH-SY5Y native cell line, read-out: SH-SY5Y EC50
Procedure, shortened: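 Response is peak DiBAC fluorescence change, normalised to the maximum from a positive control agent, sampled every 30 s over 25 min. Before compound addition, SH-SY5Y cells differentiated with PGE1 plus isomethylbutylxanthine were dye-loaded for 1 h in EBSS with […] DiBAC.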

EC50 ([2]; FLIPR assay, Table 2) [nM] | Molecule | Rat MES activity ([1]; oral) | other results
– | CC(C)(C)CC(=O)Nc1nc2ccc(F)cn2c1-c1nccs1 [Compound 371, N-(6-fluoro-3-(thiazol-2-yl)imidazo[1,2-a]pyridin-2-yl)-3,3-dimethyl butanamide] | ++ (++ 4-6 animals protected) | ED50 ([1]; rat MES dose-response): 3.6 mg/kg; EC50 ([2]; FLIPR assay (Table 3)): 500 to 3000 nM
– | N-(3-cyclobutyl-6-(trifluoromethyl)imidazo[1,2-b]pyridazin-2-yl)-4,4,4-trifluoro-3,3-dimethylbutanamide [Compound 438] | +++ (+++ 7-8 animals protected) | EC50 ([2]; FLIPR assay (Table 6)): < 500 nM
– | CC(C)(CC(=O)Nc1nc2ccc(C(F)(F)F)nn2c1C1CCC1)C(F)(F)F [Compound 439, N-(3-cyclobutyl-6-(trifluoromethyl)imidazo[1,2-b]pyridazin-2-yl)-4,4,4-trifluoro-3,3-dimethylbutanamide] | +++ (+++ 7-8 animals protected) | ED50 ([1]; rat MES dose-response): 0.47 mg/kg; EC50 ([2]; FLIPR assay (Table 6)): < 500 nM
– | O=C(Nc1nc2ccc(C(F)(F)F)nn2c1C1CC1)c1ccc(F)c(F)c1 [Compound 434, N-(3-cyclopropyl-6-(trifluoromethyl)imidazo[1,2-b]pyridazin-2-yl)-3,4-difluorobenzamide] | ++ (++ 4-6 animals protected) | EC50 ([2]; FLIPR assay (Table 6)): 500 to 3000 nM
– | Cc1ccc2nc(NC(=O)CC(C)C(F)(F)F)c(CC(C)(C)C)n2n1 (stereo not shown) [Compound 68, 4,4,4-trifluoro-3-methyl-N-(6-methyl-3-neopentylimidazo[1,2-b]pyridazin-2-yl)butanamide] | +++ (+++ 7-8 animals protected) | EC50 ([2]; FLIPR assay, Table 1): < 500 nM
– | CC(C)(C)Cc1c(NC(=O)C2CCCC2)nc2ccc(C(F)(F)F)cn12 [Compound 51, N-(3-neopentyl-6-(trifluoromethyl)imidazo[1,2-a]pyridin-2-yl)cyclopentanecarboxamide] | ++ (++ 4-6 animals protected) | EC50 ([2]; FLIPR assay, Table 1): < 500 nM
– | CC(C)(C)CC(=O)Nc1nc2ccc(F)cn2c1-c1ccc(C(F)(F)F)cn1 [Compound 353, N-(6-fluoro-3-(5-(trifluoromethyl)pyridin-2-yl)imidazo[1,2-a]pyridin-2-yl)-3,3-dimethylbutanamide] | +++ (+++ 7-8 animals protected) | EC50 ([2]; FLIPR assay (Table 3)): < 500 nM
– | CC(C)(CC(=O)Nc1nc2ccc(F)cn2c1C1CCC1)C(F)(F)F [Compound 446, N-(3-cyclobutyl-6-fluoroimidazo[1,2-a]pyridin-2-yl)-4,4,4-trifluoro-3,3-dimethylbutanamide] | +++ (+++ 7-8 animals protected) | EC50 ([2]; FLIPR assay (Table 6)): < 500 nM
– | CC(C)(C)Cc1c(NC(=O)Cc2ccccc2)nc2ccc(C(F)(F)F)cn12 [Compound 20, N-(3-neopentyl-6-(trifluoromethyl)imidazo[1,2-a]pyridin-2-yl)-2-phenylacetamide] | + (+ 2-3 animals protected) | EC50 ([2]; FLIPR assay, Table 1): < 500 nM
– | CC(C)(C(=O)Nc1nc2ccc(C(F)(F)F)cn2c1C1CCC1)C(F)(F)F [Compound 428, N-(3-cyclobutyl-6-(trifluoromethyl)imidazo[1,2-a]pyridin-2-yl)-3,3,3-trifluoro-2,2-dimethylpropanamide] | +++ (+++ 7-8 animals protected) | ED50 ([1]; rat MES dose-response): 1.1 mg/kg; EC50 ([2]; FLIPR assay (Table 6)): < 500 nM
< 500 | Cc1ccc2nc(NC(=O)CC(C)C(F)(F)F)c(-c3cccc(C(F)(F)F)c3)n2n1 (stereo not shown) [Compound 316, 4,4,4-trifluoro-3-methyl-N-(6-methyl-3-(3-(trifluoromethyl)phenyl)imidazo[1,2-b]pyridazin-2-yl)butanamide] | ++ (++ 4-6 animals protected) | –
– | C[C@H](CC(=O)Nc1nc2ccc(C(F)(F)F)cn2c1C1CC1)C(F)(F)F [Compound 89, (R)—N-(3-cyclopropyl-6-(trifluoromethyl)imidazo[1,2-a]pyridin-2-yl)-4,4,4-trifluoro-3-methylbutanamide] | +++ (+++ 7-8 animals protected) | ED50 ([1]; rat MES dose-response): 5.8 mg/kg; EC50 ([2]; FLIPR assay, Table 1): 500 to 3000 nM
< 500 | CC(C)(C)CC(=O)Nc1nc2ccc(Cl)nn2c1-c1ccc(C(F)(F)F)cc1 [Compound 271, N-(6-chloro-3-(4-(trifluoromethyl)phenyl)imidazo[1,2-b]pyridazin-2-yl)-3,3-dimethylbutanamide] | ++ (++ 4-6 animals protected) | –
– | N-(3-cyclopropyl-6-(trifluoromethyl)imidazo[1,2-b]pyridazin-2-yl)-4,4,4-trifluoro-3,3-dimethylbutanamide [Compound 436] | – | ED50 (mpk) ([1]; rat MES dose-response, oral): 0.7 mpk; EC50 ([2]; FLIPR assay (Table 6)): 500 to 3000 nM
< 500 | CC(C)(C)CC(=O)Nc1nc2ccc(F)cn2c1-c1ccc(C(F)(F)F)cc1 [Compound 128, N-(6-fluoro-3-(4-(trifluoromethyl)phenyl)imidazo[1,2-a]pyridin-2-yl)-3,3-dimethylbutanamide] | +++ (+++ 7-8 animals protected) | –
– | CC(C)(C)CCC(=O)Nc1nc2ccc(C(F)(F)F)cn2c1CC(C)(C)C [Compound 24, 4,4-dimethyl-N-(3-neopentyl-6-(trifluoromethyl)imidazo[1,2-a]pyridin-2-yl)pentanamide] | + (+ 2-3 animals protected) | EC50 ([2]; FLIPR assay, Table 1): < 500 nM
– | CC(C)(C(=O)Nc1nc2ccc(C(F)(F)F)nn2c1C1CCC1)C(F)(F)F [Compound 437, N-(3-cyclobutyl-6-(trifluoromethyl)imidazo[1,2-b]pyridazin-2-yl)-3,3,3-trifluoro-2,2-dimethylpropanamide] | +++ (+++ 7-8 animals protected) | EC50 ([2]; FLIPR assay (Table 6)): 500 to 3000 nM
< 500 | CC1(CC(=O)Nc2nc3ccc(F)cn3c2-c2ccc(C(F)(F)F)cc2)CCCC1 [Compound 180, N-(6-fluoro-3-(4-(trifluoromethyl)phenyl)imidazo[1,2-a]pyridin-2-yl)-2-(1-methylcyclopentyl)acetamide] | ++ (++ 4-6 animals protected) | –
3000 to 10000 | COc1ccn2c(-c3ccc(C(F)(F)F)cc3)c(NC(=O)CC(F)(F)F)nc2c1 [Compound 307, 3,3,3-trifluoro-N-(7-methoxy-3-(4-(trifluoromethyl)phenyl)imidazo[1,2-a]pyridin-2-yl)propanamide] | – | –
< 500 | CC1(CC(=O)Nc2nc3ccc(F)cn3c2-c2ccc(OC(F)(F)F)c(F)c2)CCCC1 [Compound 304, N-(6-fluoro-3-(3-fluoro-4-(trifluoromethoxy)phenyl)imidazo[1,2-a]pyridin-2-yl)-2-(1-methylcyclopentyl)acetamide] | – | –
500 to 3000 | CC(C(=O)Nc1nc2cc(C(F)(F)F)ccn2c1-c1ccccc1)c1ccccc1 (stereo not shown) [Compound 110, 2-phenyl-N-(3-phenyl-7-(trifluoromethyl)imidazo[1,2-a]pyridin-2-yl)propanamide] | – | –
< 500 | O=C(CC1CCCC1)Nc1nc2ccc(F)cn2c1-c1ccc(C(F)(F)F)cc1 [Compound 156, 2-cyclopentyl-N-(6-fluoro-3-(4-(trifluoromethyl)phenyl)imidazo[1,2-a]pyridin-2-yl)acetamide] | – | –
3000 to 10000 | O=C(Cc1c(F)cccc1Cl)Nc1nc2ccc(F)cn2c1-c1ccc(F)cc1 [Compound 141, 2-(2-chloro-6-fluorophenyl)-N-(6-fluoro-3-(4-fluorophenyl)imidazo[1,2-a]pyridin-2-yl)acetamide] | – | –
500 to 3000 | CC(C)CC(=O)Nc1nc2ccc(F)cn2c1-c1ccc(F)cc1 [Compound 133, N-(6-fluoro-3-(4-fluorophenyl)imidazo[1,2-a]pyridin-2-yl)-3-methylbutanamide] | – | –

— patent publication US9018208B2, “Heterocycles as potassium channel modulators” (Icagen Inc., priority 2007, dated 2015)
